From ChEMBL document CHEMBL6182943, “Identification of 4'-Thiouridine as an Orally Available Antiviral Agent Targeting Both RdRp and NiRAN Functions of SARS-CoV-2 Nsp12” (J Med Chem, 2025)

Assays:
[1] = system: rhinovirus B14; test: Antiviral activity against Human rhinovirus B14 infected in human H1-HeLa cells incubated for 72 hrs; type: functional, organism-based; conditions: Rhinovirus B
[2] = Cytotoxicity against human H1-HeLa cells assessed as reduction in cell viability incubated for 72 hrs; type: toxicity, cell-based
[3] = Selectivity index, ratio of CC50 for cytotoxicity against human H1-HeLa cells to EC50 for antiviral activity against Human rhinovirus B14 infected in human H1-HeLa cells; type: toxicity, cell-based; conditions: read-out: Ratio CC50/EC50
[4] = system: SARS-CoV-2; test: (§1) Antiviral activity against SARS-CoV-2 Gamma (hCoV-19/Korea95637/KDCA/2021) infected in human Calu-3 cells assessed as reduction in number of spike-protein expressing cells pre-infected for 30 mins followed by compound addition and measured 48 hrs post-infection by DAPI staining based immunofluorescence analysis relative to control; type: functional, organism-based; conditions: Severe acute respiratory syndrome coronavirus 2, Gamma (hCoV-19/Korea95637/KDCA/2021)
[5] = Cytotoxicity against rhesus monkey LLC-MK2 cells assessed as reduction in cell viability by MTT-based cell viability assay; type: toxicity, Macaca mulatta
[6] = system: SARS-CoV-2; test: as §1, with “Omicron (hCoV-19/Korea/KDCA447321/2021)” for “Gamma (hCoV-19/Korea95637/KDCA/2021)”; type: functional, organism-based; conditions: Severe acute respiratory syndrome coronavirus 2, Omicron (hCoV-19/Korea/KDCA447321/2021)
[7] = Selectivity index, ratio of CC50 for cytotoxicity against HEK293T cells to EC50 for antiviral activity against Zaire Ebola virus infected in HEK293T cells transfected with viral replication protein and Renilla luciferase; type: toxicity, cell-based; conditions: human, read-out: Ratio CC50/EC50
[8] = Selectivity index, ratio of CC50 for cytotoxicity against African green monkey Vero cells to EC50 for antiviral activity against SARS-CoV-2 infected in african green monkey Vero cells assessed as reduction in number of spike-protein expressing cells; type: toxicity, cell-based; conditions: read-out: Ratio CC50/EC50
[9] = system: SARS-CoV-2; test: as §1, with “Wuhan-like (hCoV-19/Korea/KCDC06/2020)” for “Gamma (hCoV-19/Korea95637/KDCA/2021)”; type: functional, organism-based; conditions: Severe acute respiratory syndrome coronavirus 2, Wuhan-like (hCoV-19/Korea/KCDC06/2020)
[10] = Selectivity index, ratio of CC50 for cytotoxicity against human Calu-3 cells to EC50 for antiviral activity against SARS-CoV-2 Gamma (hCoV-19/Korea95637/KDCA/2021) infected in human Calu-3 cells assessed as reduction in number of spike-protein expressing cells; type: toxicity, cell-based; conditions: read-out: Ratio CC50/EC50
[11] = system: Middle East respiratory syndrome-related coronavirus; test: Antiviral activity against MERS-CoV KOR/KNIH/002_05_2015 infected in human Huh-7 cells assessed as inhibition of virus-induced cytopathic effect measured 2 to 7 days post infection by MTT-based cell viability assay; type: functional, organism-based; conditions: KOR/KNIH/002_05_2015, Huh-7
[12] = Cytotoxicity against HEK293T cells assessed as reduction in cell viability measured after 48 hrs by MTT assay; type: toxicity, cell-based, HEK-293T; conditions: human
[13] = Cytotoxicity against human Huh-7 cells assessed as reduction in cell viability by MTT-based cell viability assay; type: toxicity
[14] = system: Zaire ebolavirus; test: Antiviral activity against Zaire Ebola virus infected in HEK293T cells transfected with viral replication protein and Renilla luciferase pre-infected for 4 hrs followed by compound addition and measured after 48 hrs by Dual-luciferase reporter assay; type: functional, organism-based; conditions: HEK-293T
[15] = Selectivity index, ratio of CC50 for cytotoxicity against rhesus monkey LLC-MK2 cells to EC50 for antiviral activity against HCoV-NL63 infected in rhesus monkey LLC-MK2 cells assessed as inhibition of virus-induced cytopathic effect; type: toxicity, cell-based; conditions: read-out: Ratio CC50/EC50
[16] = Selectivity index, ratio of CC50 for cytotoxicity against human Calu-3 cells to EC50 for antiviral activity against SARS-CoV-2 Delta (hCoV-19/Korea/KDCA119861/2021) infected in human Calu-3 cells assessed as reduction in number of spike-protein expressing cells; type: toxicity, cell-based; conditions: read-out: Ratio CC50/EC50
[17] = Cytotoxicity against African green monkey Vero cells assessed as reduction in cell viability incubated for 48 hrs by MTT assay; type: toxicity, cell-based; conditions: chlorocebus sabaeus
[18] = system: SARS-CoV-2; test: Antiviral activity against SARS-CoV-2 infected in african green monkey Vero cells assessed as reduction in number of spike-protein expressing cells pre-infected for 30 mins followed by compound addition and measured 48 hrs post-infection by DAPI staining based immunofluorescence analysis; type: functional, organism-based; conditions: Severe acute respiratory syndrome coronavirus 2, Vero
[19] = Cytotoxicity against human Calu-3 cells assessed as reduction in cell viability incubated for 48 hrs by MTT assay; type: toxicity, cell-based
[20] = Selectivity index, ratio of CC50 for cytotoxicity against human Huh-7 cells to EC50 for antiviral activity against MERS-CoV KOR/KNIH/002_05_2015 infected in human Huh-7 cells assessed as inhibition of virus-induced cytopathic effect; type: toxicity, cell-based; conditions: read-out: Ratio CC50/EC50
[21] = system: SARS-CoV-2; test: as §1, with “Delta (hCoV-19/Korea/KDCA119861/2021)” for “Gamma (hCoV-19/Korea95637/KDCA/2021)”; type: functional, organism-based; conditions: Severe acute respiratory syndrome coronavirus 2, Delta (hCoV-19/Korea/KDCA119861/2021)
[22] = Selectivity index, ratio of CC50 for cytotoxicity against human Calu-3 cells to EC50 for antiviral activity against SARS-CoV-2 Wuhan-like (hCoV-19/Korea/KCDC06/2020) infected in human Calu-3 cells assessed as reduction in number of spike-protein expressing cells; type: toxicity, cell-based; conditions: read-out: Ratio CC50/EC50
[23] = Selectivity index, ratio of CC50 for cytotoxicity against human Calu-3 cells to EC50 for antiviral activity against SARS-CoV-2 Omicron (hCoV-19/Korea/KDCA447321/2021) infected in human Calu-3 cells assessed as reduction in number of spike-protein expressing cells; type: toxicity, cell-based; conditions: read-out: Ratio CC50/EC50
[24] = system: Human coronavirus NL63; test: Antiviral activity against HCoV-NL63 infected in LLC-MK2 cells assessed as inhibition of virus-induced cytopathic effect measured 2 to 7 days post infection by MTT-based cell viability assay; type: functional, organism-based

CCOC(=O)/C=C/[C@H](C[C@@H]1CCNC1=O)NC(=O)[C@@H](CC(=O)[C@@H](NC(=O)c1cc(C)on1)C(C)C)Cc1ccc(F)cc1
EC50 [1]: 570 nM
CC50 at 72 h [2]: > 100000 nM
selectivity ratio [3]: > 176

CCC(CC)COC(=O)[C@H](C)N[P@](=O)(OC[C@H]1O[C@@](C#N)(c2ccc3c(N)ncnn23)[C@H](O)[C@@H]1O)Oc1ccccc1
EC50 [4]: 1370 nM
CC50 [5]: > 100000 nM
EC50 [6]: 984 nM
selectivity ratio [7]: 14.2
selectivity ratio [8]: > 20.7
EC50 [9]: 570 nM
selectivity ratio [10]: > 73.1
EC50 [11]: < 42 nM
CC50 at 48 h [12]: 2620 nM
CC50 [13]: 19600 nM
EC50 [14]: 180 nM
selectivity ratio [15]: > 702
selectivity ratio [16]: > 41.6
CC50 at 48 h [17]: > 100000 nM
EC50 [18]: 4830 nM
CC50 at 48 h [19]: > 100000 nM
selectivity ratio [20]: > 348
EC50 [21]: 2400 nM
selectivity ratio [22]: > 174
selectivity ratio [23]: > 24.7
EC50 [24]: 140 nM
